For test [1], the target named is GDP-bound NRAS wild-type protein (Homo sapiens, UniProt P01111). As to the kind of experiment: Binding to NRAS by surface plasmon resonance (SPR), Single Cycle Kinetics. The following applies: KD ratio NRAS/KRAS, SPR, GDP-bound wild-type proteins.
Test [2] addresses GDP-bound HRAS wild-type protein (Homo sapiens, UniProt P01112). Description: Binding to HRAS by surface plasmon resonance (SPR), Single Cycle Kinetics. The following applies: KD ratio HRAS/KRAS, SPR, GDP-bound wild-type proteins.

The structures appear in SMILES notation.

Chain of GDP-bound NRAS wild-type protein (P01111 whole entry): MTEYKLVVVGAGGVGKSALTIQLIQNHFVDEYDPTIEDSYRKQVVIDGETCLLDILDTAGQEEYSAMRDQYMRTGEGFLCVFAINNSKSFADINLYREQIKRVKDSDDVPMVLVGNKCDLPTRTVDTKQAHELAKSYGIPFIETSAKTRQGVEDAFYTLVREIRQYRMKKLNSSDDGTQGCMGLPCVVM
Chain of GDP-bound HRAS wild-type protein (P01112 whole entry): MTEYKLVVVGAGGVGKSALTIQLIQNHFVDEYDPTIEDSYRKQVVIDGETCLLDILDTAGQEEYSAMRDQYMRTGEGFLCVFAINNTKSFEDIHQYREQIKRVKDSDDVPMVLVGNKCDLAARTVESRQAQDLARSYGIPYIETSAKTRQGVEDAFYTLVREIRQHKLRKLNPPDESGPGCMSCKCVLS

With `CCO[C@@H]1C[C@H]2C(=O)NC3(CCC3)C(=O)N(C)[C@@H](C(CC)CC)C(=O)N(C)[C@H](C(=O)N3CCCCC3)CC(=O)N(C)[C@H]3CCCC/C=C/c4ccc(cc4)C[C@@H](C(=O)N(C)CC(=O)N[C@@H](CCc4ccc(Cl)c(Cl)c4)C(=O)N2C1)N1CC/C=C\C[C@@H](C1=O)N(C)C(=O)CN(C)C(=O)[C@H]([C@@H](C)CC)NC3=O` [PP3046], the “NRAS/KRAS (ratio of KD value with respect to GDP-bound NRAS wild-type protein to KD value with respect to KRAS)” value in test [1] is recorded as “AA (a compound having 20 or more is denoted as AA)”. Further, the “HRAS/KRAS (ratio of KD value with respect to GDP-bound HRAS wild-type protein to KD value with respect to KRAS)” value in test [2] is “A (a compound having 10 or more and less than 20 is denoted as A)”.

With `CCO[C@@H]1C[C@H]2C(=O)NC3(CCC3)C(=O)N(C)[C@@H](C(CC)CC)C(=O)N(C)[C@H](C(=O)N3CCCC3)CC(=O)N(C)[C@H]3CCCC/C=C/c4ccc(cc4)C[C@@H](C(=O)N(C)CC(=O)N[C@@H](CCc4ccc(Cl)c(Cl)c4)C(=O)N2C1)N1CC/C=C\C[C@@H](C1=O)N(C)C(=O)CN(C)C(=O)[C@H]([C@@H](C)CC)NC3=O` [PP3047, (1S,7S,11R,13S,19S,22S,26S,29S,35S,37Z,47E)-7-[2-(3,4-dichlorophenyl)ethyl]-11-ethoxy-19-(1-ethylpropyl)-3,18,21,25,31,34-hexamethyl-29-[(1S)-1-methylpropyl]-22-(pyrrolidine-1-carbonyl)spiro[3,6,9,15,18,21,25,28,31,34,41-undecazapentacyclo[24.15.11.2^43,46.1^35,41.0^9,13]pentapentaconta-37,43(54),44,46(53),47-pentaene-16,1′-cyclobutane]-2,5,8,14,17,20,24,27,30,33,55-undecone], the “NRAS/KRAS (ratio of KD value with respect to GDP-bound NRAS wild-type protein to KD value with respect to KRAS)” value in test [1] was “AA (a compound having 20 or more is denoted as AA)”. Moreover, the “HRAS/KRAS (ratio of KD value with respect to GDP-bound HRAS wild-type protein to KD value with respect to KRAS)” value in test [2] is “A (a compound having 10 or more and less than 20 is denoted as A)”.

Take `CCO[C@@H]1C[C@H]2C(=O)NC3(CC(C)(C)C3)C(=O)N(C)[C@@H](C(CC)CC)C(=O)N(C)[C@H](C(=O)N(C)C)CC(=O)N(C)[C@H]3CCCCC/C=C/c4ccc(cc4)C[C@@H](C(=O)N(C)CC(=O)N[C@@H](CCc4cc(F)c(C(F)(F)F)c(F)c4)C(=O)N2C1)N1CC/C=C\C[C@@H](C1=O)N(C)C(=O)CN(C)C(=O)[C@H]([C@@H](C)CC)NC3=O` [PP3048]: in test [1], the “NRAS/KRAS (ratio of KD value with respect to GDP-bound NRAS wild-type protein to KD value with respect to KRAS)” value is “A (a compound having 10 or more and less than 20 is denoted as A)”. Further, the “HRAS/KRAS (ratio of KD value with respect to GDP-bound HRAS wild-type protein to KD value with respect to KRAS)” value in test [2] was “A (a compound having 10 or more and less than 20 is denoted as A)”.

As for `CCO[C@@H]1C[C@H]2C(=O)NC3(CCC3)C(=O)N(C)[C@@H](C3CCCC3)C(=O)N(C)[C@H](C(=O)N3CCCC3)CC(=O)N(C)[C@H]3CCCCC/C=C/c4ccc(cc4)C[C@@H](C(=O)N(C)CC(=O)N[C@@H](CCc4ccc(Cl)c(Cl)c4)C(=O)N2C1)N1CC/C=C\C[C@@H](C1=O)N(C)C(=O)CN(C)C(=O)[C@H]([C@@H](C)CC)NC3=O` [PP3049], in test [1], the “NRAS/KRAS (ratio of KD value with respect to GDP-bound NRAS wild-type protein to KD value with respect to KRAS)” value is recorded as “AA (a compound having 20 or more is denoted as AA)”. Moreover, in test [2], the “HRAS/KRAS (ratio of KD value with respect to GDP-bound HRAS wild-type protein to KD value with respect to KRAS)” value was “A (a compound having 10 or more and less than 20 is denoted as A)”.

For the compound `CCO[C@@H]1C[C@H]2C(=O)NC3(CC(C)(C)C3)C(=O)N(C)[C@@H](C(CC)CC)C(=O)N(C)[C@H](C(=O)N(C)C)CC(=O)N(C)[C@H]3CCCCC/C=C/c4ccc(cc4)C[C@@H](C(=O)N(C)CC(=O)N[C@@H](CCc4ccc(Cl)c(Cl)c4)C(=O)N2C1)N1CC/C=C\C[C@@H](C1=O)N(C)C(=O)CN(C)C(=O)[C@H]([C@@H](C)CC)NC3=O` [PP3050], the “NRAS/KRAS (ratio of KD value with respect to GDP-bound NRAS wild-type protein to KD value with respect to KRAS)” value in test [1] was “AA (a compound having 20 or more is denoted as AA)”. In addition, in test [2], the “HRAS/KRAS (ratio of KD value with respect to GDP-bound HRAS wild-type protein to KD value with respect to KRAS)” value is “A (a compound having 10 or more and less than 20 is denoted as A)”.

In the case of `CCO[C@@H]1C[C@H]2C(=O)NC3(CCC3)C(=O)N(C)[C@@H](C(CC)CC)C(=O)N(C)[C@H](C(=O)N3CCCCC3)CC(=O)N(C)[C@H]3CCCCC/C=C/c4ccc(cc4)C[C@@H](C(=O)N(C)CC(=O)N[C@@H](CCc4ccc(Cl)c(Cl)c4)C(=O)N2C1)N1CC/C=C\C[C@@H](C1=O)N(C)C(=O)CN(C)C(=O)[C@H]([C@@H](C)CC)NC3=O` [PP3051], in test [1], the “NRAS/KRAS (ratio of KD value with respect to GDP-bound NRAS wild-type protein to KD value with respect to KRAS)” value is on record as “AA (a compound having 20 or more is denoted as AA)”. Besides, the “HRAS/KRAS (ratio of KD value with respect to GDP-bound HRAS wild-type protein to KD value with respect to KRAS)” value in test [2] is “A (a compound having 10 or more and less than 20 is denoted as A)”.

`CCO[C@@H]1C[C@H]2C(=O)NC3(CCC3)C(=O)N(C)[C@@H](C(CC)CC)C(=O)N(C)[C@H](C(=O)N3CCCC3)CC(=O)N(C)[C@H]3CCCCC/C=C/c4ccc(cc4)C[C@@H](C(=O)N(C)CC(=O)N[C@@H](CCc4ccc(Cl)c(Cl)c4)C(=O)N2C1)N1CC/C=C\C[C@@H](C1=O)N(C)C(=O)CN(C)C(=O)[C@H]([C@@H](C)CC)NC3=O` [PP3052]: the “NRAS/KRAS (ratio of KD value with respect to GDP-bound NRAS wild-type protein to KD value with respect to KRAS)” value in test [1] was “AA (a compound having 20 or more is denoted as AA)”. In addition, the “HRAS/KRAS (ratio of KD value with respect to GDP-bound HRAS wild-type protein to KD value with respect to KRAS)” value in test [2] was “A (a compound having 10 or more and less than 20 is denoted as A)”.

Turning to `CC[C@H](C)[C@@H]1NC(=O)[C@@H]2CCC/C=C/c3ccc(cc3)C[C@@H](C(=O)N(C)CC(=O)N[C@@H](CCc3ccc(Cl)c(Cl)c3)C(=O)N3C[C@H](OC4CCC4)C[C@H]3C(=O)NC3(CC(C)(C)C3)C(=O)N(C)[C@@H](C3CCCC3)C(=O)N(C)[C@H](C(=O)N3CCCC3)CC(=O)N2C)N2CC/C=C\C[C@@H](C2=O)N(C)C(=O)CN(C)C1=O` [PP3053], the “NRAS/KRAS (ratio of KD value with respect to GDP-bound NRAS wild-type protein to KD value with respect to KRAS)” value in test [1] is “A (a compound having 10 or more and less than 20 is denoted as A)”. Besides, in test [2], the “HRAS/KRAS (ratio of KD value with respect to GDP-bound HRAS wild-type protein to KD value with respect to KRAS)” value is “A (a compound having 10 or more and less than 20 is denoted as A)”.

With `CC[C@H](C)[C@@H]1NC(=O)[C@@H]2CCC/C=C/c3ccc(cc3)C[C@@H](C(=O)N(C)CC(=O)N[C@@H](CCc3ccc(Cl)c(Cl)c3)C(=O)N3C[C@H](OC4CCCC4)C[C@H]3C(=O)NC3(CC(C)(C)C3)C(=O)N(C)[C@@H](C3CCCC3)C(=O)N(C)[C@H](C(=O)N3CCCC3)CC(=O)N2C)N2CC/C=C\C[C@@H](C2=O)N(C)C(=O)CN(C)C1=O` [PP3054], in test [1], the “NRAS/KRAS (ratio of KD value with respect to GDP-bound NRAS wild-type protein to KD value with respect to KRAS)” value is “A (a compound having 10 or more and less than 20 is denoted as A)”. The “HRAS/KRAS (ratio of KD value with respect to GDP-bound HRAS wild-type protein to KD value with respect to KRAS)” value in test [2] was “A (a compound having 10 or more and less than 20 is denoted as A)”.

On to `CCO[C@@H]1C[C@H]2C(=O)NC3(CC(C)(C)C3)C(=O)N(C)[C@@H](C3CCCC3)C(=O)N(C)[C@H](C(=O)N(C)CC)CC(=O)N(C)[C@H]3C/C=C/c4ccc(cc4)C[C@@H](C(=O)N(C)CC(=O)N[C@@H](CCc4ccc(Cl)c(Cl)c4)C(=O)N2C1)N1CC/C=C\C[C@@H](C1=O)N(C)C(=O)CN(C)C(=O)[C@H]([C@@H](C)CC)NC3=O` [PP3056], for which the “NRAS/KRAS (ratio of KD value with respect to GDP-bound NRAS wild-type protein to KD value with respect to KRAS)” value in test [1] is “A (a compound having 10 or more and less than 20 is denoted as A)”. In test [2], the “HRAS/KRAS (ratio of KD value with respect to GDP-bound HRAS wild-type protein to KD value with respect to KRAS)” value was “A (a compound having 10 or more and less than 20 is denoted as A)”.

For the compound `CCO[C@@H]1C[C@H]2C(=O)NC3(CC(C)(C)C3)C(=O)N(C)[C@@H](C3CCCC3)C(=O)N(C)[C@H](C(=O)N(C)C)CC(=O)N(C)[C@H]3CCCCC/C=C/c4ccc(cc4)C[C@@H](C(=O)N(C)CC(=O)N[C@@H](CCc4ccc(Cl)c(Cl)c4)C(=O)N2C1)N1CC/C=C\C[C@@H](C1=O)N(C)C(=O)CN(C)C(=O)[C@H]([C@@H](C)CC)NC3=O` [PP3057], the “NRAS/KRAS (ratio of KD value with respect to GDP-bound NRAS wild-type protein to KD value with respect to KRAS)” value in test [1] was “A (a compound having 10 or more and less than 20 is denoted as A)”. In addition, the “HRAS/KRAS (ratio of KD value with respect to GDP-bound HRAS wild-type protein to KD value with respect to KRAS)” value in test [2] is “B (a compound having 3 or more and less than 10 is denoted as B)”.

For the compound `CC[C@H](C)[C@@H]1NC(=O)[C@@H]2CCC/C=C/c3ccc(cc3)C[C@@H](C(=O)N(C)CC(=O)N[C@@H](CCc3ccc(Cl)c(Cl)c3)C(=O)N3C[C@H](OC4CCC4)C[C@H]3C(=O)NC3(CC(C)(C)C3)C(=O)N(C)[C@@H](C3CCCC3)C(=O)N(C)[C@H](C(=O)N(C)CC)CC(=O)N2C)N2CC/C=C\C[C@@H](C2=O)N(C)C(=O)CN(C)C1=O` [PP3058], the “NRAS/KRAS (ratio of KD value with respect to GDP-bound NRAS wild-type protein to KD value with respect to KRAS)” value in test [1] is “A (a compound having 10 or more and less than 20 is denoted as A)”. The “HRAS/KRAS (ratio of KD value with respect to GDP-bound HRAS wild-type protein to KD value with respect to KRAS)” value in test [2] is “A (a compound having 10 or more and less than 20 is denoted as A)”.

For `CCO[C@@H]1C[C@H]2C(=O)N(C)C3(CC(C)(C)C3)C(=O)N(C)[C@@H](C3CCCC3)C(=O)N(C)[C@H](C(=O)N(C)C)CC(=O)N(C)[C@H]3CCC/C=C/c4ccc(cc4)C[C@@H](C(=O)N(C)CC(=O)N[C@@H](CCc4ccc(Cl)c(Cl)c4)C(=O)N2C1)N1CC/C=C\C[C@@H](C1=O)N(C)C(=O)CN(C)C(=O)[C@H]([C@@H](C)CC)NC3=O` [PP3059], the “NRAS/KRAS (ratio of KD value with respect to GDP-bound NRAS wild-type protein to KD value with respect to KRAS)” value in test [1] was “A (a compound having 10 or more and less than 20 is denoted as A)”. In addition, the “HRAS/KRAS (ratio of KD value with respect to GDP-bound HRAS wild-type protein to KD value with respect to KRAS)” value in test [2] is “A (a compound having 10 or more and less than 20 is denoted as A)”.

For `CCO[C@@H]1C[C@H]2C(=O)N(C)C3(CC(C)(C)C3)C(=O)N(C)[C@@H](C3CCCC3)C(=O)N(C)[C@H](C(=O)N(C)C)CC(=O)N(C)[C@H]3CCC/C=C/c4ccc(cc4)C[C@@H](C(=O)N(C)CC(=O)N[C@@H](CCc4cc(F)c(C(F)(F)F)c(F)c4)C(=O)N2C1)N1CC/C=C\C[C@@H](C1=O)N(C)C(=O)CN(C)C(=O)[C@H]([C@@H](C)CC)NC3=O` [PP3060], the “NRAS/KRAS (ratio of KD value with respect to GDP-bound NRAS wild-type protein to KD value with respect to KRAS)” value in test [1] is “B (a compound having 3 or more and less than 10 is denoted as B)”. In addition, in test [2], the “HRAS/KRAS (ratio of KD value with respect to GDP-bound HRAS wild-type protein to KD value with respect to KRAS)” value was “B (a compound having 3 or more and less than 10 is denoted as B)”.

For the origin of these results see patent US20250230193A1, “CYCLIC COMPOUND HAVING SELECTIVE KRAS INHIBITORY EFFECT ON HRAS AND NRAS” (CHUGAI SEIYAKU KABUSHIKI KAISHA, priority 2022, published 2025).
